# Measured values reported in paper PMC3328449, “Inhibition of Diacylglycerol–Sensitive TRPC Channels by Synthetic and Natural Steroids” (PLoS ONE, 2012).
# Where “and” joins values, the source holds several entries; their conditions need not be identical. Equal values may be shown once.
# Tests used:
# [1] = biological target: T1, hTRPC6 (Homo sapiens, UniProt Q9Y210); assay: OAG-induced Ca2+ entry, fluo-4 fluorometric imaging plate reader, TRPC6 HEK-FITR cells; format: cell-based; conditions: for IC50: TRPC6 HEK-FITR cells, fluo-4, area under the curve, 10 min pre-incubation, read-out: IC50, inhibition of OAG-induced Ca2+ entry via TRPC6; for Hill slope n, inhibition of TRPC6-mediated Ca2+ entry: fit to Hill model
# T1 construct: expressed in transfected cells
# T1 sequence (Q9Y210 1-931): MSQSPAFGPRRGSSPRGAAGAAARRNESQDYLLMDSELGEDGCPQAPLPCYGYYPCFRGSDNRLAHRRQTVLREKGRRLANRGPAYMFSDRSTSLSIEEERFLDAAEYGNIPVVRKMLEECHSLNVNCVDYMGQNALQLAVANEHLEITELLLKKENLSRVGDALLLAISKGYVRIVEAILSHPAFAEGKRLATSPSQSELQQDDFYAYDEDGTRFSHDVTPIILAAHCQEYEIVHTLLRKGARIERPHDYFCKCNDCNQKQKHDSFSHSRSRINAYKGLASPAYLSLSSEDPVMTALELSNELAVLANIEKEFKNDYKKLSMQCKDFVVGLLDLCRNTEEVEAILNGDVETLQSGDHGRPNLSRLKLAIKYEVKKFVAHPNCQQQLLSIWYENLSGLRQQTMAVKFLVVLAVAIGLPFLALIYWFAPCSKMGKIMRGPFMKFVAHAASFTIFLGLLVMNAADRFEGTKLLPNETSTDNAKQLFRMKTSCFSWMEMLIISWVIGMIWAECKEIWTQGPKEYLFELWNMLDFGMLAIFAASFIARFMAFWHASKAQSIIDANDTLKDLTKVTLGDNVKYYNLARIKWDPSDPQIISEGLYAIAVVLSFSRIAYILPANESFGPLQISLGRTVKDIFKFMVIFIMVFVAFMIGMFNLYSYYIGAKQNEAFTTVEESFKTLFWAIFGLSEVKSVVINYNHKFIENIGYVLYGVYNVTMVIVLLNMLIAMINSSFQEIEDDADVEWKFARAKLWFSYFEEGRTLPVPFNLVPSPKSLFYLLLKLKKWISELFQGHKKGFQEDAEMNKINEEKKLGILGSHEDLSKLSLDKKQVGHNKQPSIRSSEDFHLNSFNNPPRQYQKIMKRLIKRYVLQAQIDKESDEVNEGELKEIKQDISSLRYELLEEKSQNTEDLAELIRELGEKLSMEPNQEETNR
# Procedure: Cells were grown at 37°C in a humidified atmosphere (5% or 7% CO2) under standard cell culture conditions. Stable human embryonic kidney (HEK) cell lines expressing recombinant mTRPC4ß (GenBank accession number AAC05178); mTRPC5 (GenBank accession number NM_009428) or hTRPC6 (GenBank accession number AF080394) under the control of a tetracycline-inducible promoter were generated using the Flp-In T-Rex (FITR) system (Invitrogen, Karlsruhe, Germany). TRPC4/5/6 HEK-FITR cells were maintained in Dulbecco's modified eagle medium (DMEM, with glutaMAX I, 4.5 g/l glucose and […] sodium pyruvate) supplemented with 10% (v/v) fetal bovine serum (Biochrom, Berlin, Germany), 1 mM glutamine, 1 mM MEM sodium pyruvate, 40 μg/ml hygromycin (50 μg/ml for mTRPC5 HEK-FITR cells), and 15 μg/ml blasticidine HCl. Channel expression was induced by supplementing the growth medium for 18-24 h with 1 μg/ml doxycycline. Cells grown to an almost confluent monolayer on black poly-D-lysine coated 96-well plates (Greiner, Frickenhausen, Germany) were washed with standard extracellular solution (140 mM NaCl, 1 mM MgCl2, 5.4 mM KCl, 2 mM CaCl2, 10 mM HEPES, 10 mM glucose, pH 7.35) and stained (30 min, room temperature) with dye solution (2 μM fluo-4 AM, 0.02% pluronic F127, 0.1% bovine serum albumin in standard extracellular solution). Cells were washed and either incubated with standard extracellular solution only or with different concentrations of test compounds for 10 min. Fluo-4 fluorescence was excited at 488 nm with an argon laser and measured using a fluorometric imaging plate reader (Molecular Devices, Sunnyvale, USA). All fluorometric measurements were performed at room temperature. […] Baseline fluorescence in non-OAG-stimulated cells and OAG-stimulated Ca^2+ influx into control cells not treated with inhibitors were defined as 0% and 100% influx, respectively. For statistical analysis, analysis of variance was performed with Origin 6.0 software (Microcal Software Inc., Northampton, USA). […] Averaged data is expressed as means ± SEM.
# [2] = system: A7r5 cells; assay: Fura-2 measurement of AVP-induced Ca2+ release in A7r5 cells; format: cell-based; conditions: 10 µM, 5 min pre-incubation, calcium-free solution, 100 nM AVP
# Procedure: A7r5 cells (ATCC, Rockville, USA) were maintained in DMEM (with glutaMAX I, 4.5 g/l glucose and […] sodium pyruvate), supplemented with 10% (v/v) fetal bovine serum (PAA, Pasching, Austria). Cells grown on poly-L-lysine-coated 24-mm glass coverslips were loaded in cell culture medium supplemented with 2 µM fura-2 AM (30 min, 37°C) and subsequently allowed to de-esterify in standard extracellular solution (15 min, 37°C). Changes in [Ca^2+]i were measured using a monochromator-based imaging system (T.I.L.L. Photonics, Gräfelfing, Germany) mounted on an inverted Axiovert 200 microscope (Zeiss, Göttingen, Germany). Fluorescence was excited alternating at 340 nm and 380 nm, long-pass filtered at 440 nm and captured at 2 s intervals. The 340/380 nm excitation ratio of selected cell areas was calculated with T.I.L.L. vision 4.0 software (T.I.L.L. Photonics) after correction for background fluorescence.
Compound,IC50 [1],"Hill slope n, inhibition of TRPC6-mediated Ca2+ entry [1]","Effect on TRPC6-mediated Ca2+ entry ([1]; 30 µM pre-incubation, OAG-induced)",Sensitivity of AVP-induced Ca2+ release [2]
CC(=O)[C@H]1CC[C@H]2[C@@H]3CCC4=CC(=O)CC[C@]4(C)[C@H]3CC[C@]12C [progesterone],18 µM,1.2,–,–
C#C[C@]1(OC(C)=O)CC[C@H]2[C@@H]3CCC4=CC(=NO)CC[C@@H]4[C@H]3CC[C@@]21CC (mixture of isomers) [norgestimate],3 to 5 µM and 5.2 µM,0.97,significantly reduced,not sensitive
